This test concerns Rattus norvegicus. The experiment in a line: Antihypertensive activity in spontaneously hypertensive rats, measured as average blood pressure at 100 mg/kg, p.o. before predose; No significant lowering of blood pressure. The class given is functional, organism-based. Also noted: dose 100 mg/kg.

As to `O=S(=O)(c1ccccc1)c1c(O)nnc(-c2ccccc2)c1-c1ccccc1`, the BP entry was “Not significant”. The entry for `O=C(O)c1c(O)nnc(-c2ccc(Cl)cc2)c1-c1ccc(Cl)cc1` is “Not significant”; for `CC(=O)c1c(O)nnc(-c2ccc(Cl)cc2)c1-c1ccc(Cl)cc1` it is “Not significant”. Consider `COc1ccc(-c2nn(CCO)c(=O)c(C#N)c2-c2ccc(OC)cc2)cc1`, for which the BP entry was “Not significant”.

`O=c1c(-c2ccccc2)c(-c2ccc(Cl)cc2)c(-c2ccc(Cl)cc2)nn1CCO`: the BP entry was “Not significant”.

Take `COc1ccc(OC)c(-c2c(-c3ccccc3)c(-c3ccccc3)nn(CCO)c2=O)c1`: the BP entry was “Not significant”. Turning to `N#Cc1c(O)nnc(-c2ccc(Br)cc2)c1-c1ccc(Br)cc1`, the BP result was “Not significant”. Consider `CC(=O)c1c(-c2ccc(Cl)cc2)c(-c2ccc(Cl)cc2)nn(CCCCCO)c1=O`, for which the BP entry is “Not significant”.

Take `COc1ccc(-c2c(O)nnc(-c3ccccc3)c2-c2ccccc2)cc1`: the BP entry was “Not significant”.

Regarding `N#Cc1c(-c2ccc(Cl)c(Cl)c2)c(-c2ccc(Cl)c(Cl)c2)nn(CCO)c1=O`, the BP entry is “Not significant”. Turning to `CC(=O)c1c(-c2ccc(OCc3ccccc3)cc2)c(-c2ccc(OCc3ccccc3)cc2)nn(CCO)c1=O`, the BP result is “Not significant”. The entry for `COc1ccccc1-c1c(O)nnc(-c2ccccc2)c1-c1ccccc1` is “Not significant”; for `N#Cc1c(O)nnc(-c2ccccc2Cl)c1-c1ccccc1Cl` it is “Not significant”; for `CC(=O)c1c(-c2ccc(Cl)cc2)c(-c2ccc(Cl)cc2)nn(CC(C)O)c1=O` (configuration not stated) it is “Not significant”. For the compound `CCn1nc(-c2ccc(Cl)cc2)c(-c2ccc(Cl)cc2)c(C(C)=O)c1=O`, the BP result is “Not significant”.

As to `CCOC(=O)NCCn1nc(-c2ccc(Cl)cc2)c(-c2ccc(Cl)cc2)c(C(C)=O)c1=O`, the BP result was “Not significant”. The entry for `CCC(=O)c1c(-c2ccc(Cl)cc2)c(-c2ccc(Cl)cc2)nn(CCO)c1=O` is “Not significant”; for `COc1ccc(-c2c(-c3ccccc3)c(-c3ccccc3)nn(CCO)c2=O)cc1OC` it is “Not significant”.

`Cc1ccc(-c2c(O)nnc(-c3ccccc3)c2-c2ccccc2)cc1`: the BP entry is “Not significant”. Turning to `Oc1nnc(-c2ccccc2)c(-c2ccccc2)c1-c1cccc(Cl)c1`, the BP entry was “Not significant”.

Take `O=C(O)CCCn1nc(-c2ccccc2)c(-c2ccccc2)c(-c2ccccc2)c1=O`: the BP result is “Not significant”. As for `CC(=O)c1c(-c2ccc(Cl)cc2)c(-c2ccc(Cl)cc2)nn(CCCN(C)C)c1=O`, the BP entry was “Not significant”. The entry for `O=c1cc(-c2ccc(Cl)cc2)c(-c2ccc(Cl)cc2)nn1CCO` is “Not significant”; for `CC(=O)c1c(-c2ccc(Cl)cc2)c(-c2ccc(Cl)cc2)nn(CC(O)CCl)c1=O` (configuration not stated) it is “Not significant”. The entry for `Oc1nnc(-c2ccccc2)c(-c2ccccc2)c1-c1ccc(Br)cc1` is “Not significant”; for `CC(C)C(=O)c1c(-c2ccc(Cl)cc2)c(-c2ccc(Cl)cc2)nn(CCO)c1=O` it is “Not significant”. As for `CCOC(=O)CCCn1nc(-c2ccccc2)c(-c2ccccc2)c(C(C)=O)c1=O`, the BP entry is “Not significant”. The entry for `CC(=O)c1c(O)nnc(-c2ccccc2)c1-c1ccccc1` is “Not significant”. As for `CCCC(=O)c1c(O)nnc(-c2ccc(Cl)cc2)c1-c1ccc(Cl)cc1`, the BP entry was “Not significant”. In the case of `O=C(c1ccccc1)c1c(-c2ccccc2)c(-c2ccccc2)nn(CCO)c1=O`, the BP entry is “Not significant”. `COc1ccc(OC)c(-c2c(O)nnc(-c3ccccc3)c2-c2ccccc2)c1`: the BP entry was “Not significant”.

Turning to `O=c1c(-c2ccc3ccccc3c2)c(-c2ccccc2)c(-c2ccccc2)nn1CCO`, the BP result was “Not significant”. Take `CC(=O)c1c(O)nnc(-c2ccc(F)cc2)c1-c1ccc(F)cc1`: the BP result was “Not significant”.

As to `COc1ccc(-c2c(-c3ccccc3)c(-c3ccccc3)nn(CCO)c2=O)cc1`, the BP entry was “Not significant”. The result for `COc1cccc(-c2c(-c3ccccc3)c(-c3ccccc3)nn(CCO)c2=O)c1` reads “Not significant”; that for `COc1ccc(-c2nnc(O)c(C(C)=O)c2-c2ccc(OC)cc2)cc1`, “Not significant”; that for `CC(O)c1c(-c2ccccc2)c(-c2ccccc2)nn(CCO)c1=O` (configuration not stated), “Not significant”. The entry for `CC(=O)c1c(-c2ccc(Cl)cc2)c(-c2ccc(Cl)cc2)nn(CC2CO2)c1=O` (configuration not stated) is “Not significant”. `CC(=O)c1c(-c2ccc(Cl)cc2)c(-c2ccc(Cl)cc2)nn(CC(O)CNC(C)C)c1=O` (configuration not stated): the BP result was “Not significant”. The result for `CC(=O)c1c(-c2ccc(O)cc2)c(-c2ccc(O)cc2)nn(CC[n+]2ccccc2)c1=O` reads “Not significant”; that for `O=c1c(-c2cccc(Cl)c2)c(-c2ccccc2)c(-c2ccccc2)nn1CCO`, “Not significant”; that for `O=C(O)c1c(-c2ccc(Cl)cc2)c(-c2ccc(Cl)cc2)nn(CCO)c1=O`, “Not significant”. The entry for `Cc1ccc(-c2nnc(O)c(-c3ccccc3)c2-c2ccc(C)cc2)cc1` is “Not significant”; for `CCOC(=O)Cn1nc(-c2ccc(OC)cc2)c(-c2ccc(OC)cc2)c(C(C)=O)c1=O` it is “Not significant”; for `C=Cn1nc(-c2ccc(Cl)cc2)c(-c2ccc(Cl)cc2)c(C(C)=O)c1=O` it is “Not significant”.

For `CC(=O)Cn1nc(-c2ccc(Cl)cc2)c(-c2ccc(Cl)cc2)c(C#N)c1=O`, the BP entry was “Not significant”. The entry for `CCCC(=O)c1c(-c2ccc(Cl)cc2)c(-c2ccc(Cl)cc2)nn(CCO)c1=O` is “Not significant”; for `CC(=O)c1c(-c2ccc(Cl)cc2)c(-c2ccc(Cl)cc2)nn(CC(N)=O)c1=O` it is “Not significant”; for `COc1cc(-c2c(O)nnc(-c3ccc(Cl)cc3)c2-c2ccc(Cl)cc2)cc(OC)c1OC` it is “Not significant”. Consider `COc1ccccc1-c1c(-c2ccccc2)c(-c2ccccc2)nn(CCO)c1=O`, for which the BP result is “Not significant”. Take `CC(=O)c1c(-c2ccc(Cl)cc2)c(-c2ccc(Cl)cc2)nn(CCCl)c1=O`: the BP entry is “Not significant”. The entry for `CC(=O)Nc1ccc(-c2c(-c3ccc(Cl)cc3)c(-c3ccc(Cl)cc3)nn(CCO)c2=O)cc1` is “Not significant”; for `CCCC(=O)c1c(-c2ccc(Cl)cc2)c(-c2ccc(Cl)cc2)nn(C(C)CO)c1=O` (configuration not stated) it is “Not significant”; for `CC(=O)c1c(-c2ccc(Cl)cc2)c(-c2ccc(Cl)cc2)nn(CC[N+](C)(C)C)c1=O` it is “Not significant”.

Regarding `CC(=O)c1c(-c2ccccc2)c(-c2ccccc2)nn(C)c1=O`, the BP result is “Not significant”.

As to `CC(=O)c1c(-c2ccc(O)cc2)c(-c2ccc(O)cc2)nn(CCO)c1=O`, the BP result was “Not significant”. Take `COc1ccc(-c2nn(CCO)c(=O)c(C(C)=O)c2-c2ccc(OC)cc2)cc1`: the BP result is “Not significant”. The entry for `Cc1ccc(-c2nnc(O)c(C#N)c2-c2ccc(C)cc2)cc1` is “Not significant”; for `Oc1nnc(-c2ccccc2)c(-c2ccccc2)c1-c1ccccc1` it is “Not significant”; for `Cn1nc(-c2ccccc2)c(-c2ccccc2)c(C#N)c1=O` it is “Not significant”. On to `COC(=O)Cn1nc(-c2ccc(Cl)cc2)c(-c2ccc(Cl)cc2)c(C#N)c1=O`, for which the BP result was “Not significant”. The result for `N#Cc1c(-c2ccc(Cl)cc2)c(-c2ccc(Cl)cc2)nn(CCCl)c1=O` reads “Not significant”; that for `N#Cc1c(-c2ccc(F)cc2)c(-c2ccc(F)cc2)nn(CCO)c1=O`, “Not significant”. For the compound `CC(=O)c1c(-c2ccc(Cl)cc2)c(-c2ccc(Cl)cc2)nn(CCI)c1=O`, the BP entry was “Not significant”.

With `C/C(=N\N)c1c(O)nnc(-c2ccccc2)c1-c1ccccc1`, the BP result was “Not significant”. The result for `CC(=O)c1c(-c2ccc(Cl)cc2)c(-c2ccc(Cl)cc2)nn(CCN2C(=O)c3ccccc3C2=O)c1=O` reads “Not significant”. Consider `CCOC(=O)c1c(-c2ccc(Cl)cc2)c(-c2ccc(Cl)cc2)nn(CCO)c1=O`, for which the BP result is “Not significant”. As for `CCOC(=O)CCCn1nc(-c2ccc(Cl)cc2)c(-c2ccc(Cl)cc2)c(C#N)c1=O`, the BP entry was “Not significant”. Regarding `CC(=O)c1c(-c2ccc(Cl)cc2)c(-c2ccc(Cl)cc2)nn(CCCCCCN2C(=O)c3ccccc3C2=O)c1=O`, the BP result was “Not significant”. For the compound `COC(=O)Cn1nc(-c2ccc(Cl)cc2)c(-c2ccc(Cl)cc2)c(C(C)=O)c1=O`, the BP result was “Not significant”. For `N#Cc1c(-c2ccccc2Cl)c(-c2ccccc2Cl)nn(CCO)c1=O`, the BP result was “Not significant”.

In the case of `CC(=O)c1c(-c2ccc(Cl)cc2)c(-c2ccc(Cl)cc2)nn(CC(=O)O)c1=O`, the BP entry was “Not significant”.

For the compound `Oc1nnc(-c2ccccc2)c(-c2ccccc2)c1-c1ccc(Cl)cc1`, the BP result was “Not significant”. As to `Cc1ccc(-c2nn(CCO)c(=O)c(-c3ccccc3)c2-c2ccc(C)cc2)cc1`, the BP result was “Not significant”. The entry for `CC(=O)c1c(-c2ccccc2)c(-c2ccccc2)nn(CCCC(=O)O)c1=O` is “Not significant”; for `O=c1c(-c2ccc(Br)cc2)c(-c2ccccc2)c(-c2ccccc2)nn1CCO` it is “Not significant”. The entry for `N#Cc1c(O)nnc(-c2ccc(Cl)c(Cl)c2)c1-c1ccc(Cl)c(Cl)c1` is “Not significant”.

For the origin of these results see ChEMBL document CHEMBL1121371, “Antihypertensive 5,6-diarylpyridazin-3-ones” (1980).
